The source of these data is article PMC9571264 (Molecules, 2022).

The test system of one test is Liver Cancer HepG2. Put plainly: MTT cytotoxicity assay, HepG2. It is filed as cell-based, human. As to conditions: Homo sapiens, HepG2, 48 h, read-out: IC50 (µM) ± SEM, Liver Cancer HepG2. How it is done: (§1) Cytotoxic activities of the synthesized derivatives were screened against leukemia (HL60), liver (HepG2), breast (MCF-7), and lung (A549) cancer cell lines and non-cancerous THLE2 and WISH cells at different concentrations [0.01–100 µM] for 48 h using the MTT assay (Table 1).
(§2) Human promyelocytic leukemia ”HL-60”, human hepatocellular carcinoma “HepG2”, human breast cancer “MCF-7”, human lung cancer “A549” cell lines, and two normal cell lines, THLE-2 as normal adult liver epithelial cells and WISH as normal epithelial cells, were obtained from American Type Culture Collection “Rockville, MD, USA”.
(§3) According to the manufacturer’s protocol, the cells were seeded in 96-well plates at a concentration of 5 × 10^4 cells per well (200 µL). Different concentrations of the tested compounds were used to test the cytotoxicity. […] A non-linear regression of curve fit was used to calculate the IC50.
(In general: Tetrazolium assays rely on reduction of a dye to a coloured formazan, in cell work by metabolically active cells.)

A further test concerns Breast Cancer MCF-7. Put plainly: MTT cytotoxicity assay, MCF-7. It is filed as cell-based. To be noted: Homo sapiens, MCF7, 48 h, read-out: IC50 (µM) ± SEM, Breast Cancer MCF-7. How it is done:
as §1, §2, §3

The next test relates to Normal WISH Cells. The test can be described thus: MTT cytotoxicity assay, normal WISH. In kind it is cell-based. As to conditions: 48 h, read-out: IC50 (µM) ± SEM, Normal WISH Cells. As to the method:
as §1, §2, §3

Test [1] has as its system caspases 3/7 in HepG2 cells. The test can be described thus: Caspase 3/7 green flow cytometry assay, HepG2. It is filed as cell-based, human. As to conditions: HepG2, 48 h; untreated cells 1.32%. The source says: Apoptosis is a form of cell death programmed by the family of cysteine protease. In response to the various cell death stimuli, a large irreversible proteolytic cascade is triggered and subsequently generated. The effector caspase activity has been evaluated to determine the apoptotic pathway initiated by the tested compounds using the “Cell Event™ Caspase 3/7 Green Detection kit”.
(§4) (See supplementary information for the detailed methodology of flow cytometric analyses, including “FITC/Annexin-V-FITC/PI differential apoptosis/necrosis”, “DNA content-flow cytometry aided cell cycle”, and “Caspase 3/7 green flow cytometry”).
Supplementary materials for detailed methodology
2.2.2.1. Flow cytometric analysis
2.2.2.1.1. FITC/Annexin-V-FITC/PI Differential Apoptosis/Necrosis Assessment Apoptosis and necrosis cell populations are determined using Annexin V-FITC apoptosis detection kit (Abcam Inc., Cambridge Science Park, Cambridge, UK) coupled with 2 fluorescent channels flowcytometry. […] After staining, cells are injected via ACEA Novocyte™ flowcytometer (ACEA Biosciences Inc., San Diego, CA, USA) and analyzed for FITC and PI fluorescent signals using FL1 and FL2 signal detector, respectively (λex/em 488/530 nm for FITC and λex/em 535/617 nm for PI). […]
concentration was measured. […]

The test system of another test is HepG2 cancer cells. Put plainly: DNA content-flow cytometry cell-cycle analysis, HepG2. In kind it is cell-based, human. As to conditions: HepG2, IC50 = 13.14 μM, 48 h. How it is done:
as §4
Supplementary materials for detailed methodology […]
2.2.2.1.2. DNA Content-Flow Cytometry Aided Cell Cycle Analysis
After treatment with test compounds for 48 h, cells (10^5 cells) are collected by trypsinization and washed twice with ice-cold PBS (pH 7.4). Cells are re-suspended in two milliliters of 60% ice-cold ethanol and incubated at 4 °C for 1 h for fixation. Fixed cells are washed twice again with PBS (pH 7.4) and re-suspended in 1 mL of PBS containing 50 μg/mL RNAase A and 10 μg/mL propidium iodide (PI). After 20 min of incubation in dark at 37 C, cells are analyzed for DNA contents using flow cytometry analysis using FL2 (λex/em 535/617 nm) signal detector (ACEA Novocyte™ flowcytometer, ACEA Biosciences Inc., San Diego, CA, USA). For each sample, 12,000 events are acquired. Cell cycle distribution is calculated using ACEA NovoExpress™ software (ACEA Biosciences Inc., San Diego, CA, USA).
2.2.2.1.3. Caspase- 3/7 green flow cytometry assay
The ability of compounds 4 and 9 to induce the enzymatic activities of caspase 3/7 in HL60 and HepG2 respectively were assayed using caspase 3/7 green flow cytometry assay method. Briefly, control and the tested compounds treated cells (2.5x10^5/mL) were rinsed with ice cold PBS, cell lysates were prepared and subsequently protein
Background: Flow cytometry measures light scatter and fluorescence of single cells or particles in a stream.

For the next test, the system named is Leukemia Cancer HL60. Put plainly: MTT cytotoxicity assay, HL60. In kind it is cell-based. To be noted: Homo sapiens, HL-60, 48 h, read-out: IC50 (µM) ± SEM, Leukemia Cancer HL60. As to the method: as §1, §2, §3
Another test deals with HepG2 cells. The test can be described thus: Agarose gel electrophoresis DNA fragmentation, HepG2. It is filed as cell-based, human.
A further test relates to Lung Cancer A549. The test can be described thus: MTT cytotoxicity assay, A549. It is filed as cell-based. As to conditions: Homo sapiens, 48 h, read-out: IC50 (µM) ± SEM, Lung Cancer A549. How it is done:
as §1, §2, §3

As a reminder, the IC50 is the concentration needed to halve the response being measured.

Structures are written as SMILES.

For the compound `Cc1c(Br)c(=O)oc2c(Br)c(OC(=O)/C=C/c3ccccc3)c(Br)cc12` [Compound 8b, (2E)-3,6,8-Tribromo-4-methyl-2-oxo-2H-chromen-7-yl Cinnamate], the IC50 with Liver Cancer HepG2 was 13.1 ± 0.22 µM; in the test on Breast Cancer MCF-7, 7.35 ± 0.67 µM; in the test on Normal WISH Cells it was 96.8 ± 3.21 µM; with Leukemia Cancer HL60, 69 ± 2.14 µM; in the test with Lung Cancer A549 it was 4.63 ± 0.16 µM. Moreover, the “Apoptotic cells due to active caspases 3/7” value in test [1] turned out to be 6.09%. In the test with HepG2 cancer cells (control 1.71%), this compound yielded a pre-G1 cell population of 12.56%. The G2/M cell population in the test on HepG2 cancer cells (control 12.34%) is 26.05%. The G0/G1 cell population with HepG2 cancer cells (control 53.6%) amounted to 42.53%. In addition, the DNA fragmentation entry with HepG2 cells is reported as “Loss of intact DNA fragments”.
